Measurements reported in patent US4390547A, “2,2-Dimethyl-3-(substituted ethyl)cyclopropane carboxylate pesticidal compositions and methods” (priority 1981, dated 1983).

What was measured:
[1] = test system: housefly (Musca domestica); experiment: Mortality test against houseflies by topical application (Test Example 1); assay type: in vivo; details: 24 h
Protocol: Each test compound was accurately weighed and a 1% solution and an 0.1% solution of the sample in acetone were prepared. A 1 μl portion of either of the above solutions was micropipetted onto the thoracic dorsal part of each female adult housefly (Musca domestica) under ether anaesthesia and the fly was released in a high-walled dish together with feed. The dish was covered with a metal-wire net and maintained at 25° C. After 24 hours, the test flies were inspected for deaths and the mortality (%) was calculated. Thirty test flies were used per concentration group.

[2] = test system: guppies; experiment: Fish toxicity test (Test Example 4); assay type: in vivo; details: concentration killing 50% of female guppies during 48 hours, 20° C.; [Mixture] = cis/trans 50/50
Protocol: The mixture was stirred well to prepare a test water. Ten female guppies from 3 to 4 months of age were released into the test water and maintained at 20° C. The concentration of the test compound at which 50% of the guppies were killed during the ensuring 48 hours was determined. [This concentration is referred to as TLm (medium tolerance limit, ppm)].
A rank corresponds to TLm of not less than 10 ppm.
B rank corresponds to TLm of 0.5-10 ppm.
C rank corresponds to TLm of not more than 0.5 ppm.

[3] = test system: green rice leafhoppers; experiment: Mortality of green rice leafhoppers on sprayed rice seedlings (Utility Example 1); details: green rice leafhopper, in vivo, 24 h
Protocol: (§1) To 30 parts of each of Compounds (1) to (38) were added 50 parts of xylene and 20 parts of Sorpol SM-200 (a surfactant, trademark of Toho Chemical Co., Ltd.). The mixture was stirred well and dissolved to obtain a 30% emulsifiable concentrate.
The emulsifiable concentrate prepared from Compounds (7), (11), (12), (15), (17), (21) and (22) [Each compound is a mixture of cis- and trans-isomer in a ratio of 50/50] in Formulation Example 5 were each diluted 300-fold with water. Then, each of the dilutions was sprayed over rice seedlings 25 days after sowing at the rate of 10 ml/pot. The pot was covered with a wire net and 15 green rice leafhoppers were released under the net. After 24 hours, the leafhoppers were examined for deaths. The mortality (%) was not less than 90% for each of Compounds (7), (11), (12), (15), (17), (21) and (22).

[4] = test system: common cabbage worms (Pieris rapae crucivora); details: common cabbage worm, in vivo, 24 h
Protocol: as §1
The emulsifiable concentrate prepared from Compounds (7), (11) and (15) [Each compound is a mixture of cis- and trans-isomer in a ratio 20/80] in Formulation Example 5 were each diluted 1000-fold with water. Each of 15 common cabbage worms (Pieris rapae crucivora) per group were dipped into each of the dilutions for three seconds. Then, the worms were released on the leaves of the cabbage. After 24 hours, the worms were examined for deaths. The mortality (%) was not less than 90% for each of Compounds (7), (11) and (15).

## C#CC(OC(=O)[C@@H]1[C@@H](CC(Cl)(Cl)Cl)C1(C)C)c1cccc(Oc2ccccc2)c1 (relative stereo) [(11) [Trans-isomer], 3-Phenoxy-α-ethynylbenzyl 2,2-dimethyl-3-(2,2,2-trichloroethyl)cyclopropanecarboxylate]
[1]
  mortality at 1 µg/fly: 100%
  mortality at 10 µg/fly: 100%
[2]
  TLm (medium tolerance limit): A (A rank corresponds to TLm of not less than 10 ppm.)

## CC1(C)C(CC(Cl)(Cl)Cl)C1C(=O)OC(C#N)c1cccc(Oc2ccc(Cl)cc2)c1 (stereo not drawn) [(15), 3-(4-Chlorophenoxy)-α-cyanobenzyl 2,2-dimethyl-3-(2,2,2-trichloroethyl)cyclopropanecarboxylate]
[3]
  mortality (%): not less than 90%
[4]
  mortality (%): not less than 90%

## CC1(C)C(CC(Cl)(Cl)Cl)C1C(=O)OC(C#N)c1cccc(Oc2ccccc2)c1 (stereo not drawn) [Compound (7), 3-Phenoxy-α-cyanobenzyl 2,2-dimethyl-3-(2,2,2-trichloroethyl)cyclopropanecarboxylate]
[3]
  mortality (%): not less than 90%
[4]
  mortality (%): not less than 90%

## C#CC(OC(=O)C1C(CC(Cl)(Cl)Cl)C1(C)C)c1cccc(Oc2ccccc2)c1 (stereo not drawn) [Compound (11), 3-Phenoxy-α-ethynylbenzyl 2,2-dimethyl-3-(2,2,2-trichloroethyl)cyclopropanecarboxylate]
[3]
  mortality (%): not less than 90%
[4]
  mortality (%): not less than 90%
